The values that follow come from patent US10561658B2, “Thieno- and pyrrolopyrimidine analogues as anticancer agents and methods of use thereof” (UNIVERSITY OF MARYLAND, BALTIMORE COUNTY, priority 2015, dated 2020).

Assay [1] deals with Bacillus subtilis ATCC 6633. In words: Antimicrobial growth inhibition, B. subtilis. It is filed as cell-based. The settings on record: ATCC6633; Bacillus subtilis ATCC 6633, 100 μM. The method, then:
(§1) Evaluation of antimicrobial activity in vitro. Compounds were tested against the following panel of bacteria and fungi purchased from the American Type Culture Collection (ATCC). Briefly, bacteria were grown to mid-log phase, diluted with fresh medium to an optical density at 600 nm (OD600) of 0.030-0.060 and then diluted again 1:10. This suspension (195 μL) was added to wells in a 96 well microtiter plate (Sarstedt) and 5 μL of compound dissolved in DMSO was added to give a final concentration of 100-0.1 μM at 2.5% DMSO by volume. A DMSO negative control and standard antibiotic positive controls were included in each plate. All compounds were tested in triplicate for each concentration. Plates were sealed with parafilm, placed in a Ziploc bag to prevent evaporation, and incubated at 30° C. (fungi) or 37° C. (bacteria) for 16-20 hours (48 hours for C. neoformans). The OD600 values for each well were determined with a plate reader (Biotek, EL800) and the data were standardized to the DMSO control wells after subtracting the background from blank medium. Initial single concentrations were tested at 100 μM and active compounds were further tested with at least nine concentrations for a full dose response. Dose response curves were generated using GraphPad Prism 5 software and used to determine the MIC95 concentrations (minimal concentration that inhibits 95% of growth). Compounds 1, 2, 5 and 19 were screened for growth inhibition activity against a panel of bacteria and fungi at a concentration of 100 as shown in Table 2. Compound 5 was included to test the importance of the C4-Cl substituent for activity across a broader range of biological systems.

Assay [2] deals with Staphylococcus aureus subsp. aureus (MRSA) ATCC 43300. In words: Antimicrobial growth inhibition, S. aureus (MRSA). It is filed as cell-based. Particulars: Staphylococcus aureus (MRSA) ATCC 43300, 100 μM. The method, then:
as §1

A further assay deals with MDA-MB-231 cells. The assay can be described thus: Cell cycle distribution (propidium iodide, flow cytometry), MDA-MB-231. It is filed as cell-based, human. The procedure:
Cell cycle distributions of MDA-MB-231 cells after 48 hours in the presence of equitoxic (IC80) doses of (a) compound 1 (15 μM) or (b) compound 2 (8 μM) analyzed by flow cytometry of fixed, propidium iodide-stained cells and compared to vehicle controls (DMSO). A minimum of 3000 cells were analyzed per cell population. Each bar represents the mean±SD across 4 independent cell samples.
Cell-cycle and apoptosis studies were conducted in MDA-MB-231 cells. Cell-cycle analysis of compound 19 at 15 μM concentration lead to arrest of 60% cells in G2/M stage. Similarly, at 1.75 μM concentration, compound 20 arrested 30% of cells in G2/M stage. […] To evaluate the possible mechanism for arrest of cell proliferation, cell-cycle distribution was measured using propidium iodide staining and flow cytometry. […] There are several possibilities that could account for this, including: (i) that cell lysis occurs rapidly following induction of apoptosis, preventing significant accumulation of annexin V-positive bodies, or (ii) that a distinct cell death pathway is triggered by compound 19.
Human metastatic breast cancer MDA-MB-231 cells were obtained from the American Type Culture Collection (ATCC) (Rockville, Md.) and maintained in Dulbecco's Modified Eagle's Medium (DMEM) containing 10% fetal bovine serum (FBS) without antibiotics at 37° C. in a humidified, CO2-controlled incubator. The cytotoxicity of compounds 1 and 2 was assessed by reduction of 3-(4, 5-dimethylthiazol-2-yl)-2,5-diphenyltetrazolium bromide (MTT). MDA-MB-231 cells were seeded in 96-well plates at 5×10^3 cells per well and treated with a range of drug concentrations. After 48 hours, cell viability was measured using the MTT Cell Proliferation Assay kit (ATCC) according to the manufacturer's instructions. Percent cell viability was plotted as a function of drug concentrations and analyzed using a sigmoidal dose response function with PRISM v3.03 software (GraphPad) to resolve drug concentrations yielding 50% cell death (IC50). The cell cycle distributions of MDA-MB-231 cells treated with compounds 1 or 2 were analyzed using propidium iodide staining and flow cytometry. 2×10^6 cells were seeded in 100 mm dishes and treated with compounds 1 or 2 at the IC80 values determined by cell viability assays or an equivalent volume of DMSO. 48 h following treatment the cells were collected, fixed, and stained with propidium iodide (Sigma Aldrich) immediately before analysis by flow cytometry.
As shown in Example 11, compounds 1 and 2 both induced apoptosis but involving a mechanism independent of cell cycle arrest. To test whether the toxicity of these agents for MDA-MB-231 cells proceeded via a similar pathway, their effects were monitored on cell cycle distributions using propidium iodide staining and flow cytometry. […]

Assay [3] concerns NCI-60 human tumor cell lines. In words: NCI60 human tumor cell line screen. The class given is cell-based. Particulars: NCI60, FIG. 4. The procedure:
Lead compounds 1, 2 and 19 were evaluated for anti-cancer activity at nM to uM concentrations in cellular screens.
The lead halogenated pyrrolopyrimidines and thienopyrimidines of the present invention were tested in the human cell line screen which is composed of 60 different human tumor cell lines (NCI-60) representing leukemia, melanoma, lung cancer, colon cancer, brain cancer, ovary cancer, breast cancer, prostate cancer and kidney cancer. Testing specifics can be found at the National Cancer Institute at http://dtp.nci.nih.gov/branches/btb/ivelsp.html. Compounds 1, 2 and 19 were testing initially at a single dose (10^−5M) in the full cell panel. The results of the one-dose are reported as a mean graph of the percent of the growth of the treated cells. Both growth inhibition (values between 0 and 100) and lethality (values less than 0) are detectable. To evaluate the test results, a value of 100 means no growth inhibition. A value of 40 would mean 60% growth inhibition. A value of zero means no net growth over the course of the experiment. A value of −40 means 40% lethality and a value of −100 means all the cells are dead.

Molecules are shown by their SMILES.

As a reminder, the inhibition is the share of the control response that was lost under treatment. Low readings indicate little suppression, high ones strong suppression.

In the case of `Clc1nc(Cl)c2sccc2n1` [Compound 1, 2,4-Dichlorothieno[3,2-d]pyrimidine], the inhibition at 100 µM in assay [1] is 43%; in assay [2], below 43%. In addition, the “cells accumulated in G2/M phase” value in the assay on MDA-MB-231 cells (MDA-MB-231, IC80 dose, 48 h) is above 70%. Besides, in assay [3], the “activity against non-small cell lung and CNS cancers” value is on record as “little or no activity”. Moreover, the “anti-cancer activity against melanoma, breast, colon and renal cancers” value (from here on “anti-cancer activity against melanoma”) in assay [3] is “selective activity”.

In the case of `Clc1nc(Cl)c2scc(Br)c2n1` [Compound 2, 7-Bromo-2,4-dichlorothieno[3,2-d]pyrimidine], in assay [1], the inhibition at 100 µM is below 43%. In assay [2], this molecule yielded an inhibition at 100 µM below 43%. Further, in the assay with MDA-MB-231 cells (MDA-MB-231, IC80 dose, 48 h), the “effect on cell cycle distribution” value is listed as “no effect”. Besides, in assay [3], the “activity against non-small cell lung and CNS cancers” value is listed as “little or no activity”; the “anti-cancer activity against melanoma” value was “selective activity”.

`Clc1nc(Cl)c2[nH]ccc2n1` [Compound 19, 2,4-Dichloropyrrolo[3,2-d]pyrimidine]: the inhibition at 100 µM in assay [1] is below 43%. Also, the inhibition at 100 µM in assay [2] is below 43%. Moreover, the “cells arrested in G2/M stage” value with MDA-MB-231 cells (15 μM) was found to be 60%. For the same molecule, in assay [3], the “activity against non-small cell lung and CNS cancers” value is “little or no activity”; the “anti-cancer activity against melanoma” value is “selective activity”.
